In US20230279355A1, “METHOD FOR THE IN VITRO OR EX VIVO AMPLIFICATION OF STEM CELLS OF BROWN OR BEIGE ADIPOCYTES” (CENTRE NATIONAL DE LA RECHERCHE SCIENTIFIQUE, priority 2020, published 2023):

Columns and labels:
hASCs = assay: differentiation of hASCs into adipocytes (PLIN1, UCP1 expression); assay type: cell-based, human
Procedure: In order to determine the differentiation medium, different media were tested. These media were enriched with adipogenic factors then tested for the differentiation of the hASCs. […] It should also be noted that the medium n° 5 is an option to the EGM+ which has not been pursued further.

[1] = test system: hECs (endothelial cells of human adipose tissue)
Procedure: In order to determine the proliferation medium, five mediums, which are generally marketed for the proliferation of human endothelial cells, were tested.

cells in suspension = details: reported; cited from earlier work
UCP1 = details: described in the literature; cited from earlier work

## NC(=O)c1ccc(-c2nc(-c3ccc4c(c3)OCO4)c(-c3ccccn3)[nH]2)cc1 [SB431542]
hASCs; addition of SB431542 and maintenance of Rosiglitazone
  expression of UCP1: allows the expression of UCP1
hASCs; dexamethasone and IBMX removed after the first three days, SB431542 added
  differentiation into adipocytes (PLIN1): allows restoring the differentiation
[1]
  viability of hECs: no consequence upon the viability of hECs

## C[C@@H](N)[C@H]1CC[C@H](C(=O)Nc2ccncc2)CC1 [Y27632]
Cells in suspension
  cell viability in suspension: increasing the cell viability in suspension

## C[C@]12CCC(=O)C=C1CC[C@@H]1[C@@H]2[C@@H](O)C[C@@]2(C)[C@H]1CC[C@]2(O)C(=O)CO [hydrocortisone, Hydrocortisone]
UCP1
  expression of UCP1: able to inhibit the expression of UCP1
